Read-outs that look alike come from different tables or passages of the source.
Legend:
[1] = molecular target: T1, human full-length glucocorticoid receptor (Homo sapiens, UniProt P04150); test: Glucocorticoid Receptor Binding Assay (II), fluorescence polarization competitor kit (Fluormone GS1); details: cell lysate with recombinant human full-length GR, 1 nM Fluormone GS1, FP
T1 construct: a cell lysate containing recombinantly expressed human full-length glucocorticoid receptor; purchased PanVera Co., Madison, Wis; P2816
T1 sequence (P04150 1-777): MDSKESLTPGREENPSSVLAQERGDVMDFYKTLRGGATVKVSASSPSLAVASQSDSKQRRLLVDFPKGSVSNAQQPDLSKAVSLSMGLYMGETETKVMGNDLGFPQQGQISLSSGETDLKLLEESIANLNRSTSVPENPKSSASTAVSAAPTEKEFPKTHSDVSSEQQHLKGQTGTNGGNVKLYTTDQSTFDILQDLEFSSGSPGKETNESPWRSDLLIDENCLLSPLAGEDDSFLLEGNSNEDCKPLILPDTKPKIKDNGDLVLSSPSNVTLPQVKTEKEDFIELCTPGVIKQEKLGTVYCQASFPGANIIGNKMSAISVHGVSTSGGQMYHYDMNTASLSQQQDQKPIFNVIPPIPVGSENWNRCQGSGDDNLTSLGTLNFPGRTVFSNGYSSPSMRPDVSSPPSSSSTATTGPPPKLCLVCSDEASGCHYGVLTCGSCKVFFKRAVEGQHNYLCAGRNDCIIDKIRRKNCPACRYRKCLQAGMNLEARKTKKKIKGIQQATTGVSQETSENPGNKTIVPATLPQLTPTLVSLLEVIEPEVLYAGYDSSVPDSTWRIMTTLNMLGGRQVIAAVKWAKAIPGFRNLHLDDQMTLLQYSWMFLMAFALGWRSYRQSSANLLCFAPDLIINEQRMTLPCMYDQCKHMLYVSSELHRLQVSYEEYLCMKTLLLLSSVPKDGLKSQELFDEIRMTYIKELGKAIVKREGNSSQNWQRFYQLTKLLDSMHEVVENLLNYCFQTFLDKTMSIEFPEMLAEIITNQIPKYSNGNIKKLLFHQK
Procedure: In order to measure the binding of compounds on the glucocorticoid receptor a commercially available kit was used (Glucocorticoid receptor competitor assay kit, PanVera Co., Madison, Wis., P2816). Briefly, a cell lysate containing recombinantly expressed human full-length glucocorticoid receptor was mixed with a fluorescently labeled glucocorticoid (1 nM Fluormone GS1) in the presence or absence of test compound. After one hour at room temperature, the fluorescence polarization (FP) of the samples were measured.

[2] = tested on: AP-1 induced transcriptional activity; test: Cellular Transrepressional Assay (AP-1 luciferase reporter in A549 cells, PMA-activated); assay type: cell-based; details: A549 cells with 7x AP-1 luciferase reporter, 10 ng/ml PMA, read-out: AP-1 (EC50, nM) (Cellular Transrepression Assay)
Method in brief: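 Stable A549 AP-1 (7× sites) luciferase reporter line stimulated with 10 ng/ml PMA plus test molecules (0.1 nM to 40 μM) for 7 h. Luminescence read after 10 min with luciferase reagent; EC50 from % decrease of PMA-induced signal.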

| Structure (SMILES) | Ki [1] | EC50 ([2]; Homo sapiens, A549, 7 h) | EC50 ([2]; 7 hours) |
| --- | --- | --- | --- |
| CC(C)c1cc2c(cnn2-c2ccc(F)cc2)cc1CC(C)(C)C(=O)Nc1nncs1 [Example 104] | 1.6 nM | > 10000 nM |  |
| CC(C)(C(=O)Nc1nncs1)[C@@H](c1ccccc1)c1ccc2c(cnn2-c2ccc(F)cc2N)c1 [Example 159, (3S)-3-(1-(2-Amino-4-fluorophenyl)-1H-indazol-5-yl)-2,2-dimethyl-3-phenyl-N-(1,3,4-thiadiazol-2-yl)propanamide] | 0.35 nM | 73 nM |  |
| CC(C)(C(=O)N[C@@H]1CCC[C@H]1O)[C@@H](c1ccccc1)c1ccc2c(cnn2-c2ccc(F)cc2)c1 [Example 135, (S)-3-(1-(4-fluorophenyl)-1H-indazol-5-yl)-N-(2-hydroxycyclopentyl)-2,2-dimethyl-3-phenylpropanamide] | 0.6 nM | 40 nM |  |
| COc1cccc(-n2ncc3cc(C(c4ccccc4)C(C)(C)C(=O)Nc4nncs4)ccc32)c1 (centres unmarked) [Example 94, 3-(1-(3-methoxyphenyl)-1H-indazol-5-yl)-2,2-dimethyl-3-phenyl-N-(1,3,4-thiadiazol-2-yl)propanamide] | 36 nM | 1200 nM |  |
| Cc1ccc(C(c2ccc3c(cnn3-c3ccc(F)cc3)c2)C(C)(C)C(=O)Nc2nccs2)cc1 (centres unmarked) [Example 42, 3-(1-(4-fluorophenyl)-1H-indazol-5-yl)-2,2-dimethyl-N-(thiazol-2-yl)-3-p-tolylpropanamide] | 1.9 nM | 3.9 nM |  |
| CC(C)(CC(=O)Nc1nncs1)c1ccc2c(cnn2-c2ccc(F)cc2)c1 [Example 122, 3-(1-(4-fluorophenyl)-1H-indazol-5-yl)-3-methyl-N-(1,3,4-thiadiazol-2-yl)butanamide] | 2.3 nM | > 10000 nM |  |
| CC(C)(C(=O)NC1CCCC1O)C(Cc1ccccc1)c1ccc2c(cnn2-c2ccc(F)cc2)c1 (single isomer, unassigned) [Example 124-isomerD] | 0.64 nM |  | 40 nM |
| O=C(Nc1nncs1)C(C1CCCCC1)C(c1ccccc1)c1ccc2c(cnn2-c2ccc(F)cc2)c1 (centres unmarked) [Example 148, 2-cyclohexyl-3-(1-(4-fluorophenyl)-1H-indazol-5-yl)-3-phenyl-N-(1,3,4-thiadiazol-2-yl)propanamide] | 6.4 nM | 6 nM |  |
| CC(C)(C(=O)NC1CCCC1O)C(Cc1ccccc1)c1ccc2c(cnn2-c2ccc(F)cc2)c1 (single isomer, unassigned) [Example 124-isomerC] | 2.1 nM |  | 1250 nM |
| CC(C)(C(=O)NC1CCCC1O)C(C)(C)c1ccc2c(cnn2-c2ccc(F)cc2)c1 (centres unmarked) [Example 121, 3-(1-(4-fluorophenyl)-1H-indazol-5-yl)-N-(2-hydroxycyclopentyl)-2,2,3-trimethylbutanamide] | 8.3 nM | 1730 nM |  |
| CC(C)(C(=O)NC1CC1)C(Cc1ccccc1)c1ccc2c(cnn2-c2ccc(F)cc2)c1 (centres unmarked) [Example 128, N-cyclopropyl-3-(1-(4-fluorophenyl)-1H-indazol-5-yl)-2,2-dimethyl-4-phenylbutanamide] | 0.68 nM | 673 nM |  |
| CC(C)C(c1ccc2c(cnn2-c2ccc(F)cc2)c1)C(C)(C)C(=O)Nc1nncs1 (centres unmarked) [Example 48, 3-(1-(4-fluorophenyl)-1H-indazol-5-yl)-2,2,4-trimethyl-N-(1,3,4-thiadiazol-2-yl)pentanamide] | 2.4 nM | 81 nM |  |
| Cc1ccccc1C(c1ccc2c(cnn2-c2ccc(F)cc2)c1)C(C)(C)C(=O)Nc1nncs1 (centres unmarked) [Example 49, 3-(1-(4-fluorophenyl)-1H-indazol-5-yl)-2,2-dimethyl-N-(1,3,4-thiadiazol-2-yl)-3-o-tolylpropanamide] | 1.1 nM | 4.2 nM |  |
| O=C(Nc1nncs1)C(C1CCCC1)C(c1ccccc1)c1ccc2c(cnn2-c2ccc(F)cc2)c1 (centres unmarked) [Example 147, 2-cyclopentyl-3-(1-(4-fluorophenyl)-1H-indazol-5-yl)-3-phenyl-N-(1,3,4-thiadiazol-2-yl)propanamide] | 2.3 nM | 2 nM |  |
| CC(C)(C(=O)Nc1nncs1)[C@@H](c1ccccc1)c1ccc2c(cnn2-c2ccc(F)cc2C#N)c1 [Example 97, (3S)-3-(1-(2-cyano-4-fluorophenyl)-1H-indazol-5-yl)-2,2-dimethyl-3-phenyl-N-(1,3,4-thiadiazol-2-yl)propanamide] | 5.5 nM | > 2500 nM |  |
| Cc1ccc(CC(c2ccc3c(cnn3-c3ccc(F)cc3)c2)C(C)(C)C(=O)Nc2nccs2)cc1 (centres unmarked) [Example 126, 3-(1-(4-fluorophenyl)-1H-indazol-5-yl)-2,2-dimethyl-N-(thiazol-2-yl)-4-p-tolylbutanamide] | 6.8 nM | > 10000 nM |  |
| CC(C)/C=C(\c1ccc2c(cnn2-c2ccc(F)cc2)c1)C(C)(C)C(=O)Nc1nncs1 [Example 139, (E)-3-(1-(4-Fluorophenyl)-1H-indazol-5-yl)-2,2,5-trimethyl-N-(1,3,4-thiadiazol-2-yl)hex-3-enamide] | 4.7 nM | 2500 nM |  |
| O=C(Nc1nncs1)C(c1ccccc1)C(c1ccccc1)c1ccc2c(cnn2-c2ccc(F)cc2)c1 (single isomer, unassigned) [Example 145-isomerB, 3-(1-(4-fluorophenyl)-1H-indazol-5-yl)-2,3-diphenyl-N-(1,3,4-thiadiazol-2-yl)propanamide] | 1.1 nM |  | 5 nM |
| Cn1cnc(NC(=O)CC(c2ccccc2)c2ccc3c(cnn3-c3ccc(F)cc3)c2)n1 (centres unmarked) [Example 137, 3-(1-(4-Fluorophenyl)-1H-indazol-5-yl)-N-(1-methyl-1H-1,2,4-triazol-3-yl)-3-phenylpropanamide] | 11 nM | 833 nM |  |
| Cc1ccccc1C(c1ccc2c(cnn2-c2ccc(F)cc2)c1)C(C)(C)C(=O)Nc1nccs1 (centres unmarked) [Example 40, 3-(1-(4-fluorophenyl)-1H-indazol-5-yl)-2,2-dimethyl-N-(thiazol-2-yl)-3-o-tolylpropanamide] | 1.6 nM | 2.1 nM |  |
| CCOC(=O)c1cccc(-n2ncc3cc([C@H](c4ccccc4)C(C)(C)C(=O)Nc4nncs4)ccc32)c1 (stereo in doubt) [Example 95, ethyl 3-(5-(3-(1,3,4-thiadiazol-2-ylamino)-2,2-dimethyl-3-oxo-1-phenylpropyl)-1H-indazol-1-yl)benzoate] | 496 nM | > 10000 nM |  |
| CC(C)(C(=O)Nc1nccs1)C1(c2ccc3c(cnn3-c3ccc(F)cc3)c2)CCCCC1 [Example 102, 2-(1-(1-(4-Fluorophenyl)-1H-indazol-5-yl)cyclohexyl)-2-methyl-N-(thiazol-2-yl)propanamide] | 2.8 nM | 12 nM |  |
| CC(C)(C(=O)Nc1nncs1)C(Cc1ccccc1)c1ccc2c(cnn2-c2ccc(F)cc2)c1 (centres unmarked) [Example 123, 3-(1-(4-fluorophenyl)-1H-indazol-5-yl)-2,2-dimethyl-4-phenyl-N-(1,3,4-thiadiazol-2-yl)butanamide] | 1.1 nM | 705 nM |  |
| C/C=C/CC(c1ccc2c(cnn2-c2ccc(F)cc2)c1)C(C)(C)C(=O)Nc1nncs1 (centres unmarked) [Example 55, (E)-3-(1-(4-fluorophenyl)-1H-indazol-5-yl)-2,2-dimethyl-N-(1,3,4-thiadiazol-2-yl)hept-5-enamide] | 1.3 nM | 2500 nM |  |
| CC(C)(C(=O)Nc1nccs1)C(C)(C)c1ccc2c(cnn2-c2ccc(F)cc2)c1 [Example 113, 3-(1-(4-Fluorophenyl)-1H-indazol-5-yl)-2,2,3-trimethyl-N-(thiazol-2-yl)butanamide] | 5.1 nM | 107 nM |  |
| CC(C)(C(=O)Nc1nncs1)C(c1ccc2c(cnn2-c2ccc(F)cc2)c1)C1CC1 (centres unmarked) [Example 47, 3-cyclopropyl-3-(1-(4-fluorophenyl)-1H-indazol-5-yl)-2,2-dimethyl-N-(1,3,4-thiadiazol-2-yl)propanamide] | 1.7 nM | 523 nM |  |
| O=C(Nc1nncs1)C(c1ccccc1)C(c1ccccc1)c1ccc2c(cnn2-c2ccc(F)cc2)c1 (single isomer, unassigned) [Example 145-isomerC, 3-(1-(4-fluorophenyl)-1H-indazol-5-yl)-2,3-diphenyl-N-(1,3,4-thiadiazol-2-yl)propanamide] | 555 nM |  | 5000 nM |
| Cc1cc2c(cnn2-c2ccc(F)cc2)cc1CC(C)C(=O)Nc1nncs1 (centres unmarked) [Example 106, 3-(1-(4-Fluorophenyl)-6-methyl-1H-indazol-5-yl)-2-methyl-N-(1,3,4-thiadiazol-2-yl)propanamide] | 1 nM | 160 nM |  |
